Results on 21 compounds are retold here after PMC3503826, “Limits of Ligand Selectivity from Docking to Models: In Silico Screening for A1 Adenosine Receptor Antagonists” (PLoS ONE, 2012).

As usually defined, the Ki is the equilibrium dissociation constant of an inhibitor or competing ligand from its target. By inhibition is commonly meant the change of the read-out against control, counted positive when it falls.

In assay [1] the target is bovine A1AR. Further details: method as in PMID 21080692. Conditions: reference compound; cited from earlier work.
Assay [2] has as its target T1, human A3AR (Homo sapiens, UniProt P0DMS8).
T1 construct: expressed in transfected cells
T1 sequence (P0DMS8 1-318): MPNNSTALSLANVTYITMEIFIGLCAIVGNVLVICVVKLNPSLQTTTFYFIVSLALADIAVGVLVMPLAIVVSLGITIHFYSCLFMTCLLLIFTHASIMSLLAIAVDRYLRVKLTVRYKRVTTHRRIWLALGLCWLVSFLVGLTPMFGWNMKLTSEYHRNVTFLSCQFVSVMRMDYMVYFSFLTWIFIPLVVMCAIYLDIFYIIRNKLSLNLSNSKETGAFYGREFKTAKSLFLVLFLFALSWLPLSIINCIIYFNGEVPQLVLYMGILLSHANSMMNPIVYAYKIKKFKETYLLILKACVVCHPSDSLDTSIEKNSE
As to the kind of experiment: Radioligand binding ([125I]I-AB-MECA), membranes of CHO cells expressing hA3AR. Particulars: for inhibition at 10 µM: percent inhibition at 10 µM compound, [125I]I-AB-MECA, read-out: A3 % Inhibition; for inhibition at 10 µM / Ki: hA3AR, CHO cell membranes; for Ki: [125I]I-AB-MECA 0.2 nM, mean ± standard error, read-out: A3 Ki. How it is done:
(§1) Binding affinity for three human AR (hAR) subtypes was measured using standard radioligand assays and membrane preparations from Chinese hamster ovary (CHO) cells (A1 and A3) or human embryonic kidney (HEK) 293 cells (A2A) stably expressing a hAR subtype (Table 1).
(§2) Receptor binding assays: [^3H]8-Cyclopentyl-1,3-dipropylxanthine ([^3H]DPCPX, 120 Ci/mmol) and [^125I]N ^6-(4-amino-3-iodobenzyl)adenosine-5'-N-methyluronamide ([^125I]I-AB-MECA, 2200 Ci/mmol) were purchased from Perkin–Elmer Life and Analytical Science (Boston, MA). [^3H](2-[p-(2-Carboxyethyl)phenyl-ethylamino]-5'-N-ethylcarboxamido-adenosine) ([^3H]CGS21680, 39 Ci/mmol) was purchased from American Radiolabeled Chemicals, Inc. (St. Louis, MO). Other pharmacological reagents were purchased from Tocris-R&D Systems, Inc. (Minneapolis, MN). Test compounds were prepared as 5 mM stock solutions in DMSO and stored frozen.
(§3) Cell Culture and Membrane Preparation: CHO cells stably expressing the recombinant hA1 and hA3ARs, and HEK-293 cells stably expressing the hA2AAR were cultured in Dulbecco’s modified Eagle medium (DMEM) and F12 (1∶1) supplemented with 10% fetal bovine serum, 100 units/mL penicillin, 100 µg/mL streptomycin, and 2 µmol/mL glutamine. In addition, 800 µg/mL geneticin was added to the A2A media, while 500 µg/mL hygromycin was added to the A1 and A3 media. After harvesting, cells were homogenized and suspended in PBS. Cells were then centrifuged at 240 g for 5 min, and the pellet was resuspended in 50 mM Tris-HCl buffer (pH 7.5) containing 10 mM MgCl2. The suspension was homogenized and was then ultra-centrifuged at 14,330 g for 30 min at 4°C. The resultant pellets were resuspended in Tris buffer and incubated with adenosine deaminase (3 units/mL) for 30 min at 37°C. The suspension was homogenized with an electric homogenizer for 10 sec, pipetted into 1 mL vials and then stored at -80°C until the binding experiments. The protein concentration was measured using the BCA Protein Assay Kit from Pierce Biotechnology, Inc. (Rockford, IL).
(§4) Binding assays: Standard radioligand binding assays for A1, A2A, and A3ARs were used [37]–[39]. Into each tube in the binding assay was added 50 µL of increasing concentrations of the test ligand in Tris-HCl buffer (50 mM, pH 7.5) containing 10 mM MgCl2, 50 µL of the appropriate agonist radioligand, and finally 100 µL of membrane suspension. For the A1AR (22 µg of protein/tube) the radioligand used was [^3H]DPCPX (final concentration of 0.5 nM). For the A2AAR (20 µg/tube) the radioligand used was [^3H]CGS21680 (final concentration 10 nM). For the A3AR (21 µg/tube) the radioligand used was [^125I]I-AB-MECA (final concentration 0.2 nM). Nonspecific binding was determined using a final concentration of 10 µM NECA diluted with the buffer. The mixtures were incubated at 25°C for 60 min in a shaking water bath. Binding reactions were terminated by filtration through Brandel GF/B filters under a reduced pressure using a M-24 cell harvester (Brandel, Gaithersburg, MD). Filters were washed three times with 3 mL of 50 mM ice-cold Tris-HCl buffer (pH 7.5). Filters for A1 and A2AAR binding were placed in scintillation vials containing 5 mL of Hydrofluor scintillation buffer and counted using a Perkin Elmer Liquid Scintillation Analyzer (Tri-Carb 2810TR). Filters for A3AR binding were counted using a Packard Cobra II γ-counter.
(§5) Data analysis: Binding and functional parameters were calculated using Prism 5.0 software (GraphPAD, San Diego, CA, USA). IC50 values obtained from binding inhibition curves were converted to Ki values using the Cheng-Prusoff equation [40]. Data were expressed as mean ± standard error or percentage inhibition at 10 µM.

The target of assay [3] is T2, human A2AAR (Homo sapiens, UniProt P29274).
T2 construct: expressed in transfected cells
T2 sequence (P29274 whole entry): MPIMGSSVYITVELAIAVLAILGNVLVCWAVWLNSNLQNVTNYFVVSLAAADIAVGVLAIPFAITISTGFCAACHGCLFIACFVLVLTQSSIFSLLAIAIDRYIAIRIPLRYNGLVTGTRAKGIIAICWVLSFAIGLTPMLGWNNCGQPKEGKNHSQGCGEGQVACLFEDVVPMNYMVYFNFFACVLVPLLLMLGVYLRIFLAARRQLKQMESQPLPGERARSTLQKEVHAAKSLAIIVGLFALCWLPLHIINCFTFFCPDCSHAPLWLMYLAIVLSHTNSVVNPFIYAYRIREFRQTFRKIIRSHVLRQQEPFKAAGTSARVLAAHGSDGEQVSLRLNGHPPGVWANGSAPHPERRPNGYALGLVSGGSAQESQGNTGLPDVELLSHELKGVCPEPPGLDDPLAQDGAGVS
As to the kind of experiment: Radioligand binding ([3H]CGS21680), membranes of HEK293 cells expressing hA2AAR. Particulars: HEK293 cell membranes; for Ki: [3H]CGS21680 10 nM, mean ± standard error, read-out: A2A Ki; for inhibition at 10 µM: percent inhibition at 10 µM compound, [3H]CGS21680, read-out: A2A % Inhibition. Here is the method:
as §1, §2, §3, §4, §5

Assay [4] has as its target T3, human A1AR (Homo sapiens, UniProt P30542).
T3 construct: expressed in transfected cells
T3 sequence (P30542 1-326): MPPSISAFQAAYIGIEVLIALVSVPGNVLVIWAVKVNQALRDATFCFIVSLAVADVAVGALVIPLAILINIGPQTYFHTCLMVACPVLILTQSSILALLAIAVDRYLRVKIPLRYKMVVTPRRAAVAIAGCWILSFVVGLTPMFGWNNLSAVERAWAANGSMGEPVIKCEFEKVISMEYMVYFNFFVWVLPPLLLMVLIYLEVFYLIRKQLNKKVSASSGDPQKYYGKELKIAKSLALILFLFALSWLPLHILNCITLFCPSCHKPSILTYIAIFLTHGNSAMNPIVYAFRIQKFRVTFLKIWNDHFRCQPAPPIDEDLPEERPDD
The experiment in a line: Radioligand binding ([3H]DPCPX), membranes of CHO cells expressing hA1AR. Particulars: for inhibition at 10 µM: percent inhibition at 10 µM compound, [3H]DPCPX, read-out: A1 % Inhibition; for inhibition at 10 µM / Ki: hA1AR, CHO cell membranes; for Ki: [3H]DPCPX 0.5 nM, mean ± standard error, read-out: A1 Ki. How it is done: as §1, §2, §3, §4, §5

Turning to `OC1CCC(Nc2nc(-c3ccccc3)nc3c2nnn3Cc2ccccc2)CC1` (stereo not drawn) [Compound 5, 4-[(3-benzyl-5-phenyl-triazolo[4,5-e]pyrimidin-7-yl)amino]cyclohexan-1-ol], the Ki in assay [1] was 0.003 µM.

As for `CC(NC(=O)c1ccco1)C(=O)Nc1nc(-c2ccccn2)cs1` (stereo not drawn) [Compound 7], the results for the inhibition at 10 µM in assay [2] and in assay [4] were 43 ± 3% and 17 ± 9%, respectively. The Ki in assay [3] amounted to 3.31 ± 0.27 µM.

Regarding `O=C(Nc1nc(-c2ccccn2)cs1)c1cccc(-n2cnnn2)c1` [Compound 8], the inhibition at 10 µM amounted to 35 ± 4% in assay [2] and 11 ± 6% in assay [3]. Also, the “Selectivity for A1AR over A2AAR and A3AR” value in assay [4] (by the criteria used in this screen (>50% inhibition at 10 µM)) is “selective for the A1AR”. In assay [4], the Ki amounted to 3.46 ± 0.42 µM.

For `Cc1ccccc1Nc1nc(N)nc(COc2ccccc2C#N)n1` [Compound 9], the Ki in assay [2] came out at 4.86 ± 0.33 µM; in assay [3], 2.36 ± 0.26 µM. Besides, the inhibition at 10 µM in assay [4] turned out to be 2 ± 2%.

For the compound `O=C(Nc1nc(-c2ccccn2)cs1)c1cc2c(F)cccc2[nH]1` [Compound 10], the Ki in assay [2] was determined as 9.06 ± 1.1 µM. The inhibition at 10 µM in assay [3] came to 37 ± 1%; in assay [4] it was 9 ± 9%.

For `CCCn1nc(C(=O)Nc2nc(-c3ccccn3)cs2)ccc1=O` [Compound 11], the inhibition constant (Ki) in assay [2] stood at 13.7 µM. The inhibition at 10 µM in assay [3] turned out to be 35 ± 3%; in assay [4], 13 ± 9%.

Turning to `COc1ccc(OCC(=O)Nc2nc(-c3ccccn3)cs2)cc1` [Compound 12], the Ki in assay [2] worked out at 2.78 ± 0.92 µM; in assay [3], 3.65 ± 0.87 µM. Also, the inhibition at 10 µM in assay [4] was 28 ± 9%.

Take `COc1cccc(/C=C/C(=O)Nc2nc(-c3ccccn3)cs2)c1` [Compound 13]: the results for the Ki in assay [2] and in assay [3] were 3.48 ± 1.1 µM and 10.9 µM, respectively. For the same compound, the inhibition at 10 µM in assay [4] was determined as 10 ± 10%.

Take `Cc1cccc2c(=O)[nH]c(CSc3n[nH]c(C(C)C)n3)nc12` [Compound 14]: the inhibition at 10 µM was 49 ± 1% in assay [2] and 19 ± 10% in assay [4]. The Ki in assay [3] came out at 6.54 ± 1.09 µM.

On to `Nc1nc(COC(=O)c2cc3cc(F)ccc3[nH]2)nc2ccccc12` [Compound 15], for which, in assay [2], the Ki turned out to be 9.33 ± 1.8 µM. Besides, the inhibition at 10 µM in assay [3] is 5 ± 3%; in assay [4] it was 20 ± 4%.

For the compound `CN(C(=O)Cc1csc(NC(=O)C2CC2)n1)c1ccccc1` [Compound 16], in assay [2], the Ki is 13.4 µM. Besides, the inhibition at 10 µM amounted to 36 ± 0.2% in assay [3] and 13 ± 2% in assay [4].

For the compound `CCOc1cccc2cc(C(=O)NCc3ccccn3)c(=N)oc12` [Compound 17], the inhibition at 10 µM in assay [2] came to 48 ± 7%. Besides, the Ki in assay [3] came out at 0.74 ± 0.39 µM; in assay [4] it was 0.4 ± 0.06 µM.

Consider `Cn1nnnc1SCC(=O)Nc1nc(-c2cccs2)cs1` [Compound 18], for which the values for the Ki in assay [2], in assay [3] and in assay [4] were 1.76 ± 0.21 µM, 2.13 ± 0.72 µM and 3.43 ± 1.03 µM, respectively.

On to `Cn1c(=O)c2[nH]c(NCC3CCCO3)nc2n(-c2ccccc2)c1=O` (stereo not drawn) [Compound 19], for which, in assay [2], the inhibition at 10 µM worked out at 23 ± 3%. Moreover, the Ki is 6.66 ± 0.86 µM in assay [3] and 3.34 ± 0.56 µM in assay [4].

With `N#Cc1cccc(C(=O)Nc2nc(-c3ccccn3)cs2)c1` [Compound 20], the Ki in assay [2] amounted to 1.52 ± 0.36 µM; in assay [3], 3.56 ± 0.51 µM. Also, the inhibition at 10 µM in assay [4] worked out at 45%.

For the compound `CCS(=O)(=O)Nc1cccc(C(=O)Nc2nc3ccccc3[nH]2)c1` [Compound 21], the Ki worked out at 0.205 ± 0.03 µM in assay [2], 1.34 ± 0.31 µM in assay [3] and 0.98 ± 0.09 µM in assay [4].

`CCN(Cc1nc2ccccc2c(=O)[nH]1)C(=O)c1cc(C2CC2)[nH]n1` [Compound 22]: the inhibition at 10 µM in assay [2] came out at 42 ± 6%; in assay [4] it was 36%. In assay [3], the Ki was 9.3 ± 0.7 µM.

Consider `O=C(Nc1nc(-c2cccc(F)c2)cs1)c1ccc2[nH]nnc2c1` [Compound 23], for which the Ki came out at 0.07 ± 0.02 µM in assay [2], 3.78 ± 0.83 µM in assay [3] and 1.22 ± 0.34 µM in assay [4].

For `Nc1nc(Cn2nnc(-c3ccccc3)n2)nc(Nc2ccccc2)n1` [Compound 24], the inhibition constant Ki in assay [2] was found to be 0.04 ± 0.006 µM; in assay [3], 6.14 ± 1.69 µM. The “Selectivity for A3AR” value in assay [2] (judged from Ki at the three hAR subtypes) was “slightly selective”. The inhibition at 10 µM in assay [4] was found to be 33 ± 9%.

As to `C=CCOc1ccccc1/C=N/Nc1nc2ccccc2c(=O)n1C` [Compound 25], the Ki was determined as 0.55 ± 0.07 µM in assay [2], 1.45 ± 0.17 µM in assay [3] and 2.93 ± 0.48 µM in assay [4].

As for `Cc1cc(C)c2c(=O)[nH]c(SCC(=O)Nc3cc(C)on3)nc2n1` [Compound 26], the inhibition constant Ki in assay [2] is 3.85 ± 0.59 µM; in assay [3], 1.37 ± 0.47 µM; in assay [4] it was 3.94 ± 0.39 µM.
